# In US8338414B2, “Immunosuppressive agent and anti-tumor agent comprising heterocyclic compound as active ingredient” (Zenyaku Kogyo KabushikiKaisha, priority 2005, dated 2012):
# Experiments:
# Type in all cases: cell-based
# [1] = system: human peripheral blood mononuclear cells; test: Activation inhibition assay for human peripheral blood mononuclear cells (CD40L, CD69 expression); conditions: PBMC, anti-CD3 + anti-CD28, 6 hours, flow cytometry
# Protocol: In accordance with the method of Assay Example 2, PBMC (2×10^6 cells/mL) was isolated from human peripheral blood, suspended in RPMI 1640 medium (containing 10% fetal bovine serum, 10 mM HEPES, 1 mM pyruvic acid, and 4.5 g/L glucose), and seeded in wells of a 96 well plate at 0.225 mL per well. The test substances were added to respective wells, and then an anti-CD3 antibody (2 μg/mL) and an anti-CD28 antibody (1 μg/mL) were added. Then, after incubation under conditions of carbon dioxide 5% at a temperature 37° C. for 6 hours, the expressions of CD40L and CD69, activation markers, were analysed by flow cytometry. As a result, when the cells were stimulated by both an anti-CD3 antibody and an anti-CD28 antibody, CD40L was expressed on 14.4% of PBMC, which was also CD4 positive. However, the proportion of the cells which expressed CD40L decreased when the cells had been treated with test substances (Compound 4: 4.9%; Compound 20: 3.7%, Compound 24: 3.6%).
# [2] = system: Salmonella typhimurium TA98, TA100, TA1535, TA1537 and Escherichia coli WP2uvrA; test: Ames test; conditions: preincubation method, with or without S-9, up to 5000 μg/flat plate
# Protocol: Using 5 strains of Salmonella typhimurium TA98, TA100, TA1535, TA1537 and Escherichia coli WP2uvrA, the test substances (Compound 4, Compound 19, Compound 22 and Compound 24) were tested for their mutagenesis according to a preincubation method.
# HL 60 cells = test: Proliferation inhibitory activity on hematologic neoplasm cells, HL60; conditions: Homo sapiens, HL-60, 72 h; 3 days, Alamar Blue
# Jurkat cells = test: Proliferation inhibitory activity on hematologic neoplasm cells, Jurkat; conditions: Homo sapiens, Jurkat, 72 h; 3 days, Alamar Blue
# Daudi cells = test: Proliferation inhibitory activity on hematologic neoplasm cells, Daudi; conditions: Homo sapiens, Daudi, 72 h; 3 days, Alamar Blue
# U 937 cells = test: Proliferation inhibitory activity on hematologic neoplasm cells, U937; conditions: Homo sapiens, U-937, 72 h; 3 days, Alamar Blue
compound,measurement,setting,value
"FC(F)c1nc2ccccc2n1-c1nc(N2CCOCC2)nc(N2CCOCC2)n1 [Compound 4, 2-(2-Difluoromethylbenzimidazol-1-yl)-4,6-dimorpholino-1,3,5-triazine]",proportion of the cells which expressed CD40L,"[1]; CD4 positive, 14.4% without test substance",4.9%
same,proportion of CD4-positive cells which expressed CD69,[1]; 28.8% without test substance,18.8%
same,proportion of CD4-negative cells which expressed CD69,[1]; 50.9% without test substance,17.7%
same,mutagenesis (colony number of reverse mutation),[2],negative
same,IC50,HL 60 cells,1120 nM
same,IC50,Jurkat cells,1950 nM
same,IC50,Daudi cells,105 nM
same,IC50,U 937 cells,3240 nM
